This is an account of results in paper PMC10747822 (Pharmaceutics, 2023).

Each structure is given as a SMILES string. Where two headings read alike, the source gives them in different places. Where a SMILES comes first, the peptide text is derived from it. [ ]: non-standard residue; d: D form. The star is where a group is joined. NH(4-amidinobenzyl) = N=C(N)c1ccc(CN*)cc1

Series [1] can be described thus: Blood pharmacokinetics in mice after intravenous and intraperitoneal injection. Type of series: in vivo, C57Bl/6 female mice. The note with it: for half-life: C57Bl/6, mouse, whole blood sampled at 20, 40, 60, 120 min, non-compartmental. The protocol: Animal studies were approved by the regulatory authorities (Regierungspräsidium Karlsruhe of the state of Baden-Württemberg/Germany, 35-9185.81/G-145/21) and fully complied with European and national regulations for the care and use of laboratory animals (2010/63/EU). Eight- to ten-week-old C57Bl/6 female mice (Janvier) were used for the study.
The animals were administered 4 mg/kg Ac-[D-Leu]LLLRVK-amba in 0.100 mL 0.9% sodium chloride (NaCl) solution per mouse. Four animals received the peptide as intraperitoneal injection, and three animals as intravenous bolus injection into the tail vein. Blood samples were taken 20, 40, 60, and 120 min after administration by collecting a drop of blood from puncture of the facial vein into EDTA tubes (KABE Labortechnik, Nümbrecht, Germany). Whole-blood samples were immediately snap-frozen in liquid nitrogen and stored at −80 °C until analysis.
(§1) Blood samples for calibration and QC purposes were generated through the addition of 25 µL of the pertinent spike solution to 20 µL of blank blood and the subsequent addition of 25 µL of IS solution. Calibration samples were produced at 10, 30, 100, 300, 1000, 3000, and 10,000 ng/mL, and QC samples were produced at concentrations of 10, 30, 3750, and 7500 ng/mL. For study sample processing, 20 µL of each sample was added to 25 µL of IS solution, and 25 µL of ACN/H2O 1/1 + 0.1% FA was added for volume compensation to ensure that sample preparation matches that of study blood samples. For stability reasons, each sample was immediately depleted from proteins by adding 150 µL ACN including 0.1% FA. Samples were processed individually and kept frozen until processing. Subsequently, samples were centrifuged at 13,200× g for 5 min. From the extracts, 10 µL was transferred to 400 µL of ACN/H2O 1/19 + 0.1% FA in wells of a 96-well collection plate (Waters, Milford, MA, USA).
Calibration curves were determined with 1/x^2 weighted linear regression using peak area ratios of the analyte to IS. This calculation was performed using the software TargetLynx V4.2 (Waters, Milford, MA, USA). Blood pharmacokinetics were determined with the software Kinetica (v 5.0; Thermo Fisher Scientific, Waltham, MA, USA). Pharmacokinetic analyses were performed using standard non-compartmental methods. The elimination rate (λ) was calculated by linear regression of ln-transformed concentrations from the terminal concentration decline, and the half-life was calculated as ln 2 divided by λ. Standard calculations were performed using Microsoft Office Excel 2010 (Mountain View, CA, USA).

Series [2] in a line: Freeze-and-thaw stability in whole blood QC samples. Type of series: in vitro ADME, human. The note with it: for freeze-and-thaw stability, Accuracy [%]: one cycle. The protocol: as §1
The applicable recommendations for bioanalytical method validation of the FDA and EMA were applied to the validation of the assay. Accuracy was calculated as the percentage of the ratio of the mean of the determined concentrations and the nominal concentration. The acceptance limit is 100 ± 15%, with the exception of the LLOQ where it is 100 ± 20% Q. The assay precision was calculated as the coefficient of variation of the determined sample concentrations. It needs to be ≤15% in general and ≤20% at the LLOQ. Each validation run included blank and IS controls, seven calibration samples in duplicate determination, and four QC samples (LLOQ and low, mid, and high QC concentrations) in six-fold determination. Recovery of the whole blood extraction process was calculated from peak areas of QC samples divided by the peak areas obtained from blank blood spiked with the respective amount after processing. Assessment of matrix effects was performed by the ratio of peak areas of blank blood samples spiked after processing with the peak areas of UPLC solvent containing an identical amount of analyte. Stability of the analyte was investigated in freeze-and-thaw cycles separated by at least 24 h and at room temperature for testing bench-top stability.
Because an isotopically labeled analog of Ac-[D-Leu]LLLRVK-amba was used as IS, potential variations in (negligible) matrix effects can be efficiently balanced by the IS due to its identical physicochemical characteristics. As a consequence, whole blood from other species is appropriate for calibration and QC preparation. Therefore, whole blood from human donors was used for these purposes, which also helps to reduce animal sacrifice.

In the case of `CC(=O)N[C@H](CC(C)C)C(=O)N[C@@H](CC(C)C)C(=O)N[C@@H](CC(C)C)C(=O)N[C@@H](CC(C)C)C(=O)N[C@@H](CCCNC(=N)N)C(=O)N[C@H](C(=O)N[C@@H](CCCCN)C(=O)NCc1ccc(C(=N)N)cc1)C(C)C` [Ac-[D-Leu]LLLRVK-amba] (Ac-[dL]LLLRVK-{NH(4-amidinobenzyl)}), in series [1] (female, C57Bl/6, ip, mouse #1, 2 h after intraperitoneal administration of 4 mg/kg, whole blood, UPLC-MS/MS, single sample, read-out: calculated blood concentration), the level at 2 h was 15.8 ng/mL. In addition, the half-life is 15.9 ± 1 min in series [1] (female, ip, mice, 4 mg/kg intraperitoneal, n = 4, UPLC-MS/MS, read-out: half-life after intraperitoneal administration) and 21 ± 1.6 min in series [1] (female, mice, 4 mg/kg intravenous bolus into tail vein, n = 3, UPLC-MS/MS, read-out: half-life after intravenous injection). The intraperitoneal absorption entry in series [1] (mice, 4 mg/kg intraperitoneal vs intravenous, judged by partial profiles, bioavailability not calculable) is reported as “very efficient”. Also, the “freeze-and-thaw stability, accuracy” value in series [2] (whole blood QC samples, one freeze-and-thaw cycle, range over QC levels, corresponding precision ≤14.0%, UPLC-MS/MS) is reported as 91.5 to 98.3%. Moreover, in series [2] (whole blood, more than one freeze-and-thaw cycle, cycles separated by at least 24 h), the “deviation after further freeze-and-thaw cycles” value is over 15%. For the same compound, the “freeze-and-thaw stability, Accuracy [%]” value is 91.5% in series [2] (whole blood, QC A, UPLC-MS/MS); 91.6% in series [2] (whole blood, QC B, UPLC-MS/MS); 98.3% in series [2] (whole blood, QC C, UPLC-MS/MS).
